From ChEMBL document CHEMBL1150798, “Combined therapies in a murine model of blastoschizomycosis” (2007)
Values after ≈ are worked out from the molar mass of the structure shown. Starred links: 1 amine or outer side, 2 acyl side, 3 side chain; linkers in the order of their positions; H or OH if unused. Positions of bridges follow the written chain, without caps; N, C: chain ends. Non-standard residues stand in square brackets, D forms with d. Residues, ends and D or L forms follow the SMILES beside them. *: point of attachment. hTyr(3S-OH,4S-OH,3'-OSO3H) = N[C@H](C(=O)O)[C@H](O)[C@@H](O)c1ccc(O)c(OS(=O)(=O)O)c1; Orn(4R-OH,5R-OH) = O=C([C@H](C[C@@H](O)[C@@H](O)N[*:3])N[*:1])[*:2]; Pro(3S-OH,4S-Me) = C[C@H]1CN[C@H](C(=O)O)[C@H]1O; X1 = CCCCCOc1ccc(-c2cc(-c3ccc(C(=O)*)cc3)no2)cc1; Gln(3R-OH) = NC(=O)C[C@@H](O)[C@H](N)C(=O)O; Hyp = O=C(O)[C@@H]1C[C@@H](O)CN1

Key:
Assay type in all cases: functional
[1] = system: Magnusiomyces capitatus; assay: Antimicrobial activity against Blastoschizomyces capitatus IHEM 5666 isolate infected OF1 mouse blastoschizomycosis model assessed as liver microbial count at 40 mg/kg/day, po for 6 days administered 1 hr before microbial challenge
[2] = system: Magnusiomyces capitatus; assay: Antimicrobial activity against Blastoschizomyces capitatus IHEM 5666 isolate by microdilution method
[3] = system: Magnusiomyces capitatus; assay: Antimicrobial activity against Blastoschizomyces capitatus IHEM 16105 isolate by microdilution method
[4] = system: Magnusiomyces capitatus; assay: Antimicrobial activity against Blastoschizomyces capitatus IHEM 16105 isolate infected OF1 mouse blastoschizomycosis model assessed as spleen microbial count per gram of tissue at 40 mg/kg/day, po for 6 days administered 1 hr before microbial challenge
[5] = system: Magnusiomyces capitatus; assay: Antimicrobial activity against Blastoschizomyces capitatus IHEM 16105 isolate infected OF1 mouse blastoschizomycosis model assessed as liver microbial count per gram of tissue at 40 mg/kg/day, po for 6 days administered 1 hr before microbial challenge
[6] = system: Magnusiomyces capitatus; assay: Antimicrobial activity against Blastoschizomyces capitatus IHEM 5666 isolate infected OF1 mouse blastoschizomycosis model assessed as spleen microbial count at 40 mg/kg/day, po for 6 days administered 1 hr before microbial challenge
[7] = system: Magnusiomyces capitatus; assay: Antimicrobial activity against Blastoschizomyces capitatus IHEM 16105 isolate infected OF1 mouse blastoschizomycosis model assessed as mean survival time at 40 mg/kg/day, po for 6 days administered 1 hr before microbial challenge
[8] = system: Magnusiomyces capitatus; assay: Antimicrobial activity against Blastoschizomyces capitatus IHEM 16105 isolate infected OF1 mouse blastoschizomycosis model assessed as kidney microbial count per gram of tissue at 40 mg/kg/day, po for 6 days administered 1 hr before microbial challenge
[9] = system: Magnusiomyces capitatus; assay: Antimicrobial activity against Blastoschizomyces capitatus IHEM 5666 isolate infected OF1 mouse blastoschizomycosis model assessed as mean survival time at 40 mg/kg/day, po for 6 days administered 1 hr before microbial challenge
[10] = system: Magnusiomyces capitatus; assay: Antimicrobial activity against Blastoschizomyces capitatus IHEM 5666 isolate infected OF1 mouse blastoschizomycosis model assessed as kidney microbial count at 40 mg/kg/day, po for 6 days administered 1 hr before microbial challenge
[11] = system: Magnusiomyces capitatus; assay: Antimicrobial activity against Blastoschizomyces capitatus IHEM 5666 isolate infected OF1 mouse blastoschizomycosis model assessed as kidney microbial count at 60 mg/kg/day, po for 6 days administered 1 hr before microbial challenge
[12] = system: Magnusiomyces capitatus; assay: Antimicrobial activity against Blastoschizomyces capitatus IHEM 5666 isolate infected OF1 mouse blastoschizomycosis model assessed as liver microbial count at 60 mg/kg/day, po for 6 days administered 1 hr before microbial challenge
[13] = system: Magnusiomyces capitatus; assay: Antimicrobial activity against Blastoschizomyces capitatus IHEM 16105 isolate infected OF1 mouse blastoschizomycosis model assessed as mean survival time at 60 mg/kg/day, po for 6 days administered 1 hr before microbial challenge
[14] = system: Magnusiomyces capitatus; assay: Antimicrobial activity against Blastoschizomyces capitatus IHEM 16105 isolate infected OF1 mouse blastoschizomycosis model assessed as kidney microbial count per gram of tissue at 60 mg/kg/day, po for 6 days administered 1 hr before microbial challenge
[15] = system: Magnusiomyces capitatus; assay: Antimicrobial activity against Blastoschizomyces capitatus IHEM 5666 isolate infected OF1 mouse blastoschizomycosis model assessed as mean survival time at 60 mg/kg/day, po for 6 days administered 1 hr before microbial challenge
[16] = system: Magnusiomyces capitatus; assay: Antimicrobial activity against Blastoschizomyces capitatus IHEM 16105 isolate infected OF1 mouse blastoschizomycosis model assessed as spleen microbial count per gram of tissue at 60 mg/kg/day, po for 6 days administered 1 hr before microbial challenge
[17] = system: Magnusiomyces capitatus; assay: Antimicrobial activity against Blastoschizomyces capitatus IHEM 16105 isolate infected OF1 mouse blastoschizomycosis model assessed as liver microbial count per gram of tissue at 60 mg/kg/day, po for 6 days administered 1 hr before microbial challenge
[18] = system: Magnusiomyces capitatus; assay: Antimicrobial activity against Blastoschizomyces capitatus IHEM 5666 isolate infected OF1 mouse blastoschizomycosis model assessed as spleen microbial count at 60 mg/kg/day, po for 6 days administered 1 hr before microbial challenge
[19] = system: Magnusiomyces capitatus; assay: Antimicrobial activity against Blastoschizomyces capitatus IHEM 16105 isolate infected OF1 mouse blastoschizomycosis model assessed as liver microbial count per gram of tissue at 1 mg/kg/day, ip for 6 days administered 1 hr before microbial challenge; settings: route intraperitoneal
[20] = system: Magnusiomyces capitatus; assay: Antimicrobial activity against Blastoschizomyces capitatus IHEM 5666 isolate infected OF1 mouse blastoschizomycosis model assessed as liver microbial count at 1 mg/kg/day, ip for 6 days administered 1 hr before microbial challenge; settings: route intraperitoneal
[21] = system: Magnusiomyces capitatus; assay: Antimicrobial activity against Blastoschizomyces capitatus IHEM 16105 isolate infected OF1 mouse blastoschizomycosis model assessed as mean survival time at 1 mg/kg/day, ip for 6 days administered 1 hr before microbial challenge; settings: route intraperitoneal
[22] = system: Magnusiomyces capitatus; assay: Antimicrobial activity against Blastoschizomyces capitatus IHEM 16105 isolate infected OF1 mouse blastoschizomycosis model assessed as kidney microbial count per gram of tissue at 1 mg/kg/day, ip for 6 days administered 1 hr before microbial challenge; settings: route intraperitoneal
[23] = system: Magnusiomyces capitatus; assay: Antimicrobial activity against Blastoschizomyces capitatus IHEM 5666 isolate infected OF1 mouse blastoschizomycosis model assessed as kidney microbial count at 1 mg/kg/day, ip for 6 days administered 1 hr before microbial challenge; settings: route intraperitoneal
[24] = system: Magnusiomyces capitatus; assay: Antimicrobial activity against Blastoschizomyces capitatus IHEM 5666 isolate infected OF1 mouse blastoschizomycosis model assessed as mean survival time at 1 mg/kg/day, ip for 6 days administered 1 hr before microbial challenge; settings: route intraperitoneal
[25] = system: Magnusiomyces capitatus; assay: Antimicrobial activity against Blastoschizomyces capitatus IHEM 5666 isolate infected OF1 mouse blastoschizomycosis model assessed as spleen microbial count at 1 mg/kg/day, ip for 6 days administered 1 hr before microbial challenge; settings: route intraperitoneal
[26] = system: Magnusiomyces capitatus; assay: Antimicrobial activity against Blastoschizomyces capitatus IHEM 16105 isolate infected OF1 mouse blastoschizomycosis model assessed as spleen microbial count per gram of tissue at 1 mg/kg/day, ip for 6 days administered 1 hr before microbial challenge; settings: route intraperitoneal
[27] = system: Magnusiomyces capitatus; assay: Antimicrobial activity against Blastoschizomyces capitatus IHEM 5666 isolate infected OF1 mouse blastoschizomycosis model assessed as liver microbial count at 10 mg/kg/day, sc for 6 days administered 1 hr before microbial challenge; settings: route subcutaneous
[28] = system: Magnusiomyces capitatus; assay: Antimicrobial activity against Blastoschizomyces capitatus IHEM 16105 isolate infected OF1 mouse blastoschizomycosis model assessed as kidney microbial count per gram of tissue at 10 mg/kg/day, sc for 6 days administered 1 hr before microbial challenge; settings: route subcutaneous
[29] = system: Magnusiomyces capitatus; assay: Antimicrobial activity against Blastoschizomyces capitatus IHEM 5666 isolate infected OF1 mouse blastoschizomycosis model assessed as mean survival time at 10 mg/kg/day, sc for 6 days administered 1 hr before microbial challenge; settings: route subcutaneous
[30] = system: Magnusiomyces capitatus; assay: Antimicrobial activity against Blastoschizomyces capitatus IHEM 5666 isolate infected OF1 mouse blastoschizomycosis model assessed as kidney microbial count at 10 mg/kg/day, sc for 6 days administered 1 hr before microbial challenge; settings: route subcutaneous
[31] = system: Magnusiomyces capitatus; assay: Antimicrobial activity against Blastoschizomyces capitatus IHEM 16105 isolate infected OF1 mouse blastoschizomycosis model assessed as mean survival time at 10 mg/kg/day, sc for 6 days administered 1 hr before microbial challenge; settings: route subcutaneous
[32] = system: Magnusiomyces capitatus; assay: Antimicrobial activity against Blastoschizomyces capitatus IHEM 16105 isolate infected OF1 mouse blastoschizomycosis model assessed as liver microbial count per gram of tissue at 10 mg/kg/day, sc for 6 days administered 1 hr before microbial challenge; settings: route subcutaneous
[33] = system: Magnusiomyces capitatus; assay: Antimicrobial activity against Blastoschizomyces capitatus IHEM 5666 isolate infected OF1 mouse blastoschizomycosis model assessed as spleen microbial count at 10 mg/kg/day, sc for 6 days administered 1 hr before microbial challenge; settings: route subcutaneous
[34] = system: Magnusiomyces capitatus; assay: Antimicrobial activity against Blastoschizomyces capitatus IHEM 16105 isolate infected OF1 mouse blastoschizomycosis model assessed as spleen microbial count per gram of tissue at 10 mg/kg/day, sc for 6 days administered 1 hr before microbial challenge; settings: route subcutaneous
[35] = system: Magnusiomyces capitatus; assay: Antimicrobial activity against Blastoschizomyces capitatus IHEM 5666 isolate infected OF1 mouse blastoschizomycosis model assessed as kidney microbial count per gram of tissue at 80 mg/kg/day, po for 6 days administered 1 hr before microbial challenge
[36] = system: Magnusiomyces capitatus; assay: Antimicrobial activity against Blastoschizomyces capitatus IHEM 16105 isolate infected OF1 mouse blastoschizomycosis model assessed as liver microbial count per gram of tissue at 80 mg/kg/day, po for 6 days administered 1 hr before microbial challenge
[37] = system: Magnusiomyces capitatus; assay: Antimicrobial activity against Blastoschizomyces capitatus IHEM 16105 isolate infected OF1 mouse blastoschizomycosis model assessed as mean survival time at 80 mg/kg/day, po for 6 days administered 1 hr before microbial challenge
[38] = system: Magnusiomyces capitatus; assay: Antimicrobial activity against Blastoschizomyces capitatus IHEM 16105 isolate infected OF1 mouse blastoschizomycosis model assessed as spleen microbial count per gram of tissue at 80 mg/kg/day, po for 6 days administered 1 hr before microbial challenge
[39] = system: Magnusiomyces capitatus; assay: Antimicrobial activity against Blastoschizomyces capitatus IHEM 5666 isolate infected OF1 mouse blastoschizomycosis model assessed as spleen microbial count per gram of tissue at 80 mg/kg/day, po for 6 days administered 1 hr before microbial challenge
[40] = system: Magnusiomyces capitatus; assay: Antimicrobial activity against Blastoschizomyces capitatus IHEM 16105 isolate infected OF1 mouse blastoschizomycosis model assessed as kidney microbial count per gram of tissue at 80 mg/kg/day, po for 6 days administered 1 hr before microbial challenge
[41] = system: Magnusiomyces capitatus; assay: Antimicrobial activity against Blastoschizomyces capitatus IHEM 5666 isolate infected OF1 mouse blastoschizomycosis model assessed as liver microbial count per gram of tissue at 80 mg/kg/day, po for 6 days administered 1 hr before microbial challenge
[42] = system: Magnusiomyces capitatus; assay: Antimicrobial activity against Blastoschizomyces capitatus IHEM 5666 isolate infected OF1 mouse blastoschizomycosis model assessed as mean survival time at 80 mg/kg/day, po for 6 days administered 1 hr before microbial challenge

Compound: C[C@@H](c1ncncc1F)[C@](O)(Cn1cncn1)c1ccc(F)cc1F [VORICONAZOLE]
- log10cfu [1]: 5.63
- MIC [2]: 0.25 µg/mL (≈ 0.716 µM)
- MIC [3]: 1 µg/mL (≈ 2.86 µM)
- log10cfu [4]: 5.56
- log10cfu [5]: 4.33
- log10cfu [6]: 4.75
- MST [7]: 15.78 days
- log10cfu [8]: 6.98
- MST [9]: 17.1 days
- log10cfu [10]: 6.78

Compound: Nc1nc(=O)[nH]cc1F [FLUCYTOSINE]
- log10cfu [11]: 7.13
- log10cfu [12]: 5.69
- MIC [2]: 64 µg/mL (≈ 496 µM)
- MST [13]: 17.7 days
- MIC [3]: 0.25 µg/mL (≈ 1.94 µM)
- log10cfu [14]: 7.29
- MST [15]: 7.6 days
- log10cfu [16]: 5.45
- log10cfu [17]: 4.28
- log10cfu [18]: 6.76

Compound: C[C@@H]1[C@H](O)[C@@H](C)/C=C/C=C/C=C/C=C/C=C/C=C/C=C/[C@H](O[C@@H]2O[C@H](C)[C@@H](O)[C@H](N)[C@@H]2O)C[C@@H]2O[C@](O)(C[C@@H](O)C[C@@H](O)[C@H](O)CC[C@@H](O)C[C@@H](O)CC(=O)O[C@H]1C)C[C@H](O)[C@H]2C(=O)O [AMPHOTERICIN B]
- MIC [2]: 1 µg/mL (≈ 1.08 µM)
- log10cfu [19]: 5.17
- log10cfu [20]: 4.47
- MST [21]: 12.3 days
- log10cfu [22]: 7
- log10cfu [23]: 7.39
- MST [24]: 12.2 days
- log10cfu [25]: 4.87
- log10cfu [26]: 6.02

Compound: CCCCCOc1ccc(-c2cc(-c3ccc(C(=O)N[C@H]4C[C@@H](O)[C@@H](O)NC(=O)[C@@H]5[C@@H](O)[C@@H](C)CN5C(=O)[C@H]([C@H](O)CC(N)=O)NC(=O)[C@H]([C@H](O)[C@@H](O)c5ccc(O)c(OS(=O)(=O)O)c5)NC(=O)[C@@H]5C[C@@H](O)CN5C(=O)[C@H]([C@@H](C)O)NC4=O)cc3)no2)cc1 [MICAFUNGIN] (X1-[Orn(4R-OH,5R-OH)]T[Hyp][hTyr(3S-OH,4S-OH,3'-OSO3H)][Gln(3R-OH)][Pro(3S-OH,4S-Me)]; lactam 1-C)
- MIC [2]: 64 µg/mL (≈ 50.4 µM)
- log10cfu [27]: 5.32
- log10cfu [28]: 7.5
- MIC [3]: 64 µg/mL (≈ 50.4 µM)
- MST [29]: 6.6 days
- log10cfu [30]: 7.52
- MST [31]: 7.59 days
- log10cfu [32]: 5.26
- log10cfu [33]: 7.03
- log10cfu [34]: 7.69

Compound: OC(Cn1cncn1)(Cn1cncn1)c1ccc(F)cc1F [FLUCONAZOLE]
- log10cfu [35]: 4.31
- MIC [2]: 16 µg/mL (≈ 52.2 µM)
- log10cfu [36]: 1.37
- MST [37]: 25.7 days
- log10cfu [38]: 1.59
- log10cfu [39]: 2.05
- log10cfu [40]: 3.72
- log10cfu [41]: 2.49
- MST [42]: 30 days
